# Data: US20050032912A1, “Anaesthetic compositions and method for their administration” (priority 2001, published 2005)
# Entries after “also recorded” stand apart in the source; their conditions may differ.
# How the values were obtained:
# Solubility in water = assay type: physicochemical
# Method: Other anaesthetic agents are administered to the patient by means of injection. Although generally less desirable than inhaled agents for reasons of ease of administration and the maintenance of a controlled amount of the anaesthetic composition, these are used in an variety of applications. For example, propofol is a widely used anaesthetic administered to the patient by injection. The anaesthetic agents is propofol contained in an appropriate formulation. […] Propofol must be thoroughly distributed in any anaesthetic formulation, and generally brought in to solution, because the administration of propofol itself in to the patient's blood stream can cause severe problems.
# Preparation of anaesthetic formulations of the invention is generally straightforward.
# In addition, some poloxamers require increased temperatures in order to satisfactorily micellise in water. In general, concentrations of poloxamer of about 10% w/v are useful in the present invention, but concentrations of poloxamers, whether single or mixed, can be selected as appropriate and will generally be above 0.5% and below about 20%. More preferred concentrations are from 5% to 15%. Some poloxamers will begin to gel at higher concentrations, and any poloxamer concentration that gels at body temperature, especially when in association with propofol, should be avoided for injection purposes.
# [1] = cited from earlier work
# [2] = test system: patients who have Parkinson's disease; conditions: cited from earlier work
# [3] = Solubilisation of propofol in aqueous poloxamer solution (micellar)
smiles,measurement,setting,value
CC(C)c1cccc(C(C)C)c1O [propofol],solubility in water (in words),Solubility in water,virtually insoluble in water; also recorded: not readily soluble in water
same,half-life in the bloodstream,"[1]; bloodstream, patient",nine
same,concentration in the body,[1]; three days after propofol anaesthesia,less than 0.02 mg/kg bodyweight
same,duration of tremor reduction,[2]; after propofol anaesthesia,up to three
same,effect on tremors (in words),[2]; after-effect of propofol anaesthesia,reduction in tremors
same,maximum concentration of propofol,"[3]; 10% w/w poloxamer in water, poloxamer P237",about 3.2%
same,propofol dissolved,[3]; poloxamer P407,1.7%
